Measurements as given in patent publication US20260200920A1, “SUBSTITUTED AMINOPYRIDINE COMPOUNDS FOR USE AS AKT1 INHIBITORS” (Atavistik Bio, Inc., priority 2023, published 2026).

Legend:
[1] = target: T1, human recombinant kinase full-length wildtype AKT1 (Homo sapiens, UniProt P31749); assay: AKT1 kinase assay (wildtype, TR-FRET, Lance); assay type: biochemical; details: 0.6 nM wildtype AKT1, 50 nM Ulight-CREBtide, either 50 μM ATP or 2 mM ATP, 60 min at RT
T1 construct: Purified human recombinant kinase full-length wildtype AKT1 was expressed in insect cells; made in house; host or cells: insect cells
Procedure, shortened: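 Insect-cell-expressed full-length human AKT1, PDPK1-activated (0.6 nM), preincubated with compound 15 min at RT, then reacted 60 min at RT with 50 nM ULight-CREBtide and 50 μM or 2 mM ATP (pH 7.5, 1% DMSO). Phospho-CREBtide read by Eu-anti-phospho-Ser133 TR-FRET (665/620 ratio); IC50 from 10-point 4-parameter fit.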

[2] = target: T2, human recombinant kinase full-length AKT1 E17K (Homo sapiens, UniProt P31749, E17K); assay: AKT1 E17K kinase assay (TR-FRET, Lance); assay type: biochemical; details: 0.6 nM AKT1 E17K, 50 nM Ulight-CREBtide, either 50 μM ATP or 2 mM ATP, 60 min at RT
T2 construct: Purified human recombinant kinase full-length AKT1 E17K was expressed in insect cells; made in house; host or cells: insect cells
Procedure, shortened: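 Full-length AKT1 E17K from insect cells, PDPK1-activated, at 0.6 nM with 50 nM Ulight-CREBtide and 50 μM or 2 mM ATP, pH 7.5, 1% DMSO. Enzyme and compound preincubated 15 min, reaction run 60 min at RT; Eu-anti-phospho-CREB (Ser133) TR-FRET 665/620 ratio, 10-point curve, IC50 by 4-parameter fit.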

T2 sequence (P31749 whole entry E17K): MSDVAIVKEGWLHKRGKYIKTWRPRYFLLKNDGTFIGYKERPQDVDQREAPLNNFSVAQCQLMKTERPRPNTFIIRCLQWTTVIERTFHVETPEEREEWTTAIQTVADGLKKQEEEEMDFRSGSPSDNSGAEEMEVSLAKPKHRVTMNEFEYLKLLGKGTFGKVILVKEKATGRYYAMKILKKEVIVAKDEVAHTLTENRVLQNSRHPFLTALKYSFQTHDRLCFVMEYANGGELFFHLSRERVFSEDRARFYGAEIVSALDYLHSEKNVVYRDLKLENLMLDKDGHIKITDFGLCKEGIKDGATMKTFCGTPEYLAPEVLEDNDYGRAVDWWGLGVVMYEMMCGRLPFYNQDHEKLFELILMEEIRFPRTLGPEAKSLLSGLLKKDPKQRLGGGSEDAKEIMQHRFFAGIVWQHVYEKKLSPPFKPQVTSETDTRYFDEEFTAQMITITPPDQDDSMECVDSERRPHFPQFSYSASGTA
T1 sequence (P31749 whole entry): as the sequence (P31749 whole entry E17K) above, with K17E counted along it

SMILES | IC50 [1] [µM] | IC50 [2] [nM]
NC(=O)C1CCC(CN2CC(c3ccc(-n4c(-c5cccnc5N)nc5ccc(-c6ccccc6)nc54)cc3)C2)CC1 (stereo not drawn) [Compound I-140, 4-((3-(4-(2-(2-aminopyridin-3-yl)-5-phenyl-3H-imidazo[4,5-b]pyridin-3-yl)phenyl)azetidin-1-yl)methyl)cyclohexane-1-carboxamide] | < 20 | 500 to 2000
CNC(=O)[C@H]1CC[C@H](C(=O)Nc2ccc(-n3c(-c4cccnc4N)nc4ccc(-c5ccccc5)nc43)c(C)n2)CC1 [Compound I-141, (1r,4r)-N1-(5-(2-(2-aminopyridin-3-yl)-5-phenyl-3H-imidazo[4,5-b]pyridin-3-yl)-6-methylpyridin-2-yl)-N4-methylcyclohexane-1,4-dicarboxamide] | < 20 | 500 to 2000
Cc1nc(NC(=O)[C@H]2CC[C@H](C(N)=O)CC2)ccc1-n1c(-c2cccnc2N)nc2ccc(-c3ccccc3)nc21 [Compound I-142, trans-N-(5-(2-(2-aminopyridin-3-yl)-5-phenyl-3H-imidazo[4,5-b]pyridin-3-yl)-6-methylpyridin-2-yl)cyclohexane-1,4-dicarboxamide] | < 20 | 500 to 2000
CC(C)C([C@H]1CC[C@H](C(=O)O)CC1)N1CC(c2ccc(-n3c(-c4cccnc4N)nc4ccc(-c5ccccc5)nc43)cc2)C1 (stereo partly drawn) [Compound I-143] | < 20 | 500 to 2000
Nc1ncccc1-c1nc2ccc(-c3ccccc3)nc2n1-c1ccc(C2CN(CC34CCC(C(=O)O)(CC3)CC4)C2)cc1 [Compound I-146] | < 20 | < 500
CC1(C)C[C@H](CN2CC(c3ccc(-n4c(-c5cccnc5N)nc5ccc(-c6ccccc6)nc54)cc3)C2)CC(C)(C)[C@H]1C(=O)O [Compound I-147] | < 20 | < 500
CC1(C)C[C@H](CN2CC(c3ccc(-n4c(-c5cccnc5N)nc5ccc(-c6ccccc6)nc54)cc3)C2)CC(C)(C)[C@@H]1C(=O)O [Compound I-148] | < 20 | < 500
Nc1ncccc1-c1nc2ccc(-c3ccccc3)nc2n1-c1ccc(C2CN(C[C@H]3CC4CC3CC4C(=O)O)C2)cc1 (stereo partly drawn) [Compound I-149] | < 20 | < 500
Nc1ncccc1-c1nc2ccc(-c3ccccc3)nc2n1-c1ccc(C2CN(CC3CC4CC(C(=O)O)CC4C3)C2)cc1 (stereo not drawn) [Compound I-151] | < 20 | < 500
CNS(=O)(=O)C1CCC(CN2CC(c3ccc(-n4c(-c5cccnc5N)nc5ccc(-c6ccccc6)nc54)cc3)C2)CC1 (stereo not drawn) [Compound I-152] | < 20 | 500 to 2000
Cc1cc(C2(C)CN(C[C@H]3CC[C@H](C(=O)O)CC3)C2)ccc1-n1c(-c2cccnc2N)nc2ccc(-c3ccccc3)nc21 [Compound I-156] | < 20 | 500 to 2000
Cc1cc(C2(C)CN(CC3CC4(C3)CC(C(=O)O)C4)C2)ccc1-n1c(-c2cccnc2N)nc2ccc(-c3ccccc3)nc21 (stereo not drawn) [Compound I-157] | < 20 | 500 to 2000

Now from value to compound:

IC50 [1] [µM] | IC50 [2] [nM] | SMILES
< 20 | < 500 | Nc1ncccc1-c1nc2ccc(-c3ccccc3)nc2n1-c1ccc(C2CN(C[C@@H]3CC4CC3CC4C(=O)O)C2)cc1 (stereo partly drawn) [Compound I-150]
< 20 | < 500 | Nc1ncccc1-c1nc2ccc(-c3ccccc3)nc2n1-c1ccc(C2CN(CC3CCC(CC(=O)O)CC3)C2)cc1 (stereo not drawn) [Compound I-153]
< 20 | 500 to 2000 | CC1(c2ccc(-n3c(-c4cccnc4N)nc4ccc(-c5ccccc5)nc43)cc2)CN(C[C@H]2CC[C@H](C(=O)O)CC2)C1 [Compound I-154]
< 20 | < 500 | CC1(c2ccc(-n3c(-c4cccnc4N)nc4ccc(-c5ccccc5)nc43)cc2)CN(CC2CC3(C2)CC(C(=O)O)C3)C1 (stereo not drawn) [Compound I-155]
< 20 | 500 to 2000 | CN(CCc1ccc(-n2c(-c3cccnc3N)nc3ccc(-c4ccccc4)nc32)cc1)[C@H]1CC[C@H](C(=O)O)CC1 [Compound I-158]
< 20 | < 500 | Nc1ncccc1-c1nc2ccc(-c3ccccc3)nc2n1-c1ccc(CCN2CCC(C(=O)O)C2)cc1 (stereo not drawn) [Compound I-159]
